Measured values taken from ChEMBL document CHEMBL1201862, “PubChem BioAssay data set” (2004).
Calls of active or inactive are those of the source.

Key:
[1] = molecular target: Voltage-gated inwardly rectifying potassium channel KCNH2 (Homo sapiens, UniProt Q12809); details: Potency;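 further: confirmatory quantitative high-throughput screen measuring inhibition of hERG channel activity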
[2] = cytotoxicity in HEK-293T cells, dose response, cytotoxicity control for BCR NF-kB inhibitor project, luminescence, B-cell screen hits (AID 489021); format: functional, cell-based;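 further: HEK-293T cells carrying an NF-kB luciferase reporter; cells exposed to compound for about 14 hours before viability readout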
Paired box protein Pax-8 = Paired box protein Pax-8 (Homo sapiens, UniProt Q06710); experiment: inhibitors of PAX8-driven TPO luciferase reporter, dose response, RMG-I cells, cherry-pick (AID 687027); format: functional, cell-based;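 further: luciferase reporter driven by Pax8 target thyroperoxidase promoter measured by SteadyGlo luminescence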
[3] = intracellular Trypanosoma cruzi inhibitors in host cells – cell-based, plate reader, cherry-pick samples, set 3, dose response (AID 651818); format: functional;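 further: compounds incubated with infected cells for about four days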
[4] = M. tuberculosis H37Rv growth inhibitors, H37Rv strain (AID 1626); format: functional
HEK293 = experiment: inhibitors of LMP1-driven NF-kB reporter, dose response, cell-based, HEK293, luciferase, cherry-pick (AID 588343); format: functional; details: Homo sapiens
[5] = molecular target: T1, Heat shock factor protein 1 (Mus musculus, UniProt P38532); experiment: HSF1 potentiators in luciferase reporter cells, confirmation, cell-based, NIH3T3, luminescence, dose retest (AID 435004); format: functional;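 further: stress induced by proteasome inhibitor MG132 added 30 min after compound; luciferase reporter driven by HSF1 response element in NIH3T3 cells; actives raise luminescence as potentiators of the MG132 stress response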
T1 sequence (P38532 whole entry): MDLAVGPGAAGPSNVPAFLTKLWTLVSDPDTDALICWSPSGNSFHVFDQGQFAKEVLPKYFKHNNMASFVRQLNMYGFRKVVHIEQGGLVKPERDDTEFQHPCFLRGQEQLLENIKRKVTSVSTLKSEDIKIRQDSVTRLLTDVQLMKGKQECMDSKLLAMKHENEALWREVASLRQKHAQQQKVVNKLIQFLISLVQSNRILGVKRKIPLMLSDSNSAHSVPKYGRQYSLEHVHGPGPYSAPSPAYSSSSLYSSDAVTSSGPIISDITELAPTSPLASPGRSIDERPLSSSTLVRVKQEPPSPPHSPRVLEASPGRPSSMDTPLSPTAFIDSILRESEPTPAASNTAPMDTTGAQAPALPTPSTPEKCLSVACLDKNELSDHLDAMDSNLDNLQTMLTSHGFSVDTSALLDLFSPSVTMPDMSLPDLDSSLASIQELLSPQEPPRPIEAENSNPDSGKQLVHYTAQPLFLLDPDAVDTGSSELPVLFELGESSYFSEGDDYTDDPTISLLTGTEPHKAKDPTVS

[6] = Luminescence Cell-Based Dose Retest to Confirm Inhibitors of Cancer Stem Cells. [Related pubchem assays (depositor defined):AID2717, AID2721]; format: functional; details: Homo sapiens
[7] = growth suppression of PTEN-null colon cells, dose response, cell-based, HCT116 PTEN knockout (AID 1047); format: functional;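 further: HCT116 colon tumor cells with PTEN knocked out; cells exposed to compound for 60 hours before readout; potency for loss of cell viability measured by luminescence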
[8] = growth suppression of beta-catenin-knockout colon cells, dose response, cell-based, HCT116, human colon tumor (AID 1045); format: functional;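 further: HCT116 colon tumor cells with beta catenin knocked out; cells exposed to compound for 60 hours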
Albumin = Albumin (Bos taurus, UniProt P02769); experiment: Counterscreen for inhibitors of T-cell receptor (TCR)-CD3 interaction: Fluorescence-based biochemical high throughput dose response assay to identify inhibitors of T-cell receptor (TCR)-CD3 interaction using a TAMRA-labeled BSA probe.; format: functional
[9] = molecular target: T2, Ubiquitin-conjugating enzyme E2 N (Homo sapiens, UniProt P61088); format: functional;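 further: Dose-response confirmation in a TR-FRET assay detecting UBC13-driven polyubiquitin chain formation, inhibition measured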
T2 sequence (P61088 whole entry): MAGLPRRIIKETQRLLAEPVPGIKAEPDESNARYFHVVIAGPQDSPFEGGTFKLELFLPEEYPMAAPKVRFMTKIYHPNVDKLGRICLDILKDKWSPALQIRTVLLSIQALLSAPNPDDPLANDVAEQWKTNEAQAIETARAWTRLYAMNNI

[10] = THP-1 cell cytotoxicity, dose response, cytotoxicity control for Vif-APOBEC3G degradation inhibitor project, THP-1 cells (AID 1117359); format: functional; details: Human immunodeficiency virus 1, THP-1
[11] = molecular target: Glucose-6-phosphate 1-dehydrogenase (Homo sapiens, UniProt P11413); experiment: human G6PD enzyme inhibitors, dose response, selectivity assay for P. falciparum G6PD inhibitor project, biochemical, fluorescence (AID 504792); format: functional
Chain of Glucose-6-phosphate 1-dehydrogenase (P11413 whole entry): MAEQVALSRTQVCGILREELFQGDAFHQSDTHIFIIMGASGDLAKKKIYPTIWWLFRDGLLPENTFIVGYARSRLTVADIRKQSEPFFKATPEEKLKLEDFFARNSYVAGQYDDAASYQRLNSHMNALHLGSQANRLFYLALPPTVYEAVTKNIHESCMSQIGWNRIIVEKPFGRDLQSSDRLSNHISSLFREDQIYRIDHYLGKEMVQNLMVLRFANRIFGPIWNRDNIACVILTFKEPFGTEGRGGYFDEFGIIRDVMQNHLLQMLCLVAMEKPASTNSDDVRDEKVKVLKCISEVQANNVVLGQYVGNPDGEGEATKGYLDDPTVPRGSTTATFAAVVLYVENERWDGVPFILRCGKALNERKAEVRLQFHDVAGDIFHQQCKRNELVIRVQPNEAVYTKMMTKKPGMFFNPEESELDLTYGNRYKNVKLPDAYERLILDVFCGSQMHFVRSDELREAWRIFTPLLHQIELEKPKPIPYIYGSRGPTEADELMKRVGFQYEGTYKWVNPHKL

Chain of Voltage-gated inwardly rectifying potassium channel KCNH2 (Q12809 whole entry): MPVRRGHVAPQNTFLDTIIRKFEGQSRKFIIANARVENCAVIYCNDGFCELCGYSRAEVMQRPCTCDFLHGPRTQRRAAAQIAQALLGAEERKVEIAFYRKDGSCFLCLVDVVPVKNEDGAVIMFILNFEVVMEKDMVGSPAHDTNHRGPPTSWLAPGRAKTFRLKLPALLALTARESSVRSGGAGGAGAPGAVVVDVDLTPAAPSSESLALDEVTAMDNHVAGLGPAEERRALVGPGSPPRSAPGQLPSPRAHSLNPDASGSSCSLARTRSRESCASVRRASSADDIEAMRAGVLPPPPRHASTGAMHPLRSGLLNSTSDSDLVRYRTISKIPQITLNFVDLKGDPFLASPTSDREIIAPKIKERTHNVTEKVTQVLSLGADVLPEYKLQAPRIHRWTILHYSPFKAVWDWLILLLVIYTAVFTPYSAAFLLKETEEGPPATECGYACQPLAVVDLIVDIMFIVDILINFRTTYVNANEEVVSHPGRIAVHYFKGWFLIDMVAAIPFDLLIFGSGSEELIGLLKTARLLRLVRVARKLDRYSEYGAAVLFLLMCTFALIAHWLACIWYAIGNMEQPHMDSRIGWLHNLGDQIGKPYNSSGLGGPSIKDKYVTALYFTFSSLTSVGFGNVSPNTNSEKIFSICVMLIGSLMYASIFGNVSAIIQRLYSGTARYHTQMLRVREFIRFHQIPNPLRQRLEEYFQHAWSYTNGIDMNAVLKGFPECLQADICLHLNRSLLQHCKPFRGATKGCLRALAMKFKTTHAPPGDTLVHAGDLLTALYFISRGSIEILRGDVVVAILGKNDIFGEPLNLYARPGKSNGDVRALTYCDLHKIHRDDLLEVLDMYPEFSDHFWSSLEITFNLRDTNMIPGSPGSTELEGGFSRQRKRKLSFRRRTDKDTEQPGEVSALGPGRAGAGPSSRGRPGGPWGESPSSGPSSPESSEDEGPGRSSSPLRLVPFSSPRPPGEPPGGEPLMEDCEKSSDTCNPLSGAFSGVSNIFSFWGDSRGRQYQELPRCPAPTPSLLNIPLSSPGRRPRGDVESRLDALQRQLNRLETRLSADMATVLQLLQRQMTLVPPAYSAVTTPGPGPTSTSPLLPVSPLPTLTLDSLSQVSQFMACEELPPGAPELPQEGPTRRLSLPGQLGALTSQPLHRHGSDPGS
Chain of Albumin (P02769 whole entry): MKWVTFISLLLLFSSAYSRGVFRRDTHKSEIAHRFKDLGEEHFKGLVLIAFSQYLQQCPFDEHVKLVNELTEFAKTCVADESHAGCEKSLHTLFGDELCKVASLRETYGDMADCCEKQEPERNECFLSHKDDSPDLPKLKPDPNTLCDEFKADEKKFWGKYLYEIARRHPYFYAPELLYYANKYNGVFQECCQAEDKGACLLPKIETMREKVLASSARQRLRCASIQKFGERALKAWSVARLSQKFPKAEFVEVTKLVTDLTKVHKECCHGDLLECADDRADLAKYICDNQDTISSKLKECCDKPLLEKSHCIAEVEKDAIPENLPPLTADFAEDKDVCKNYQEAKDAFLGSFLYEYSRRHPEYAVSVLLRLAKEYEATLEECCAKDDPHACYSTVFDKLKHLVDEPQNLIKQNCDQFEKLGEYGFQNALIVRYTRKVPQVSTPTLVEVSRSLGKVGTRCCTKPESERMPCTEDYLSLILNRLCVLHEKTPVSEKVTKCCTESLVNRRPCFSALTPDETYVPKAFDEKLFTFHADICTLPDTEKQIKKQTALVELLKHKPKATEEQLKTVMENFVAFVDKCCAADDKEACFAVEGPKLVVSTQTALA
Chain of Paired box protein Pax-8 (Q06710 whole entry): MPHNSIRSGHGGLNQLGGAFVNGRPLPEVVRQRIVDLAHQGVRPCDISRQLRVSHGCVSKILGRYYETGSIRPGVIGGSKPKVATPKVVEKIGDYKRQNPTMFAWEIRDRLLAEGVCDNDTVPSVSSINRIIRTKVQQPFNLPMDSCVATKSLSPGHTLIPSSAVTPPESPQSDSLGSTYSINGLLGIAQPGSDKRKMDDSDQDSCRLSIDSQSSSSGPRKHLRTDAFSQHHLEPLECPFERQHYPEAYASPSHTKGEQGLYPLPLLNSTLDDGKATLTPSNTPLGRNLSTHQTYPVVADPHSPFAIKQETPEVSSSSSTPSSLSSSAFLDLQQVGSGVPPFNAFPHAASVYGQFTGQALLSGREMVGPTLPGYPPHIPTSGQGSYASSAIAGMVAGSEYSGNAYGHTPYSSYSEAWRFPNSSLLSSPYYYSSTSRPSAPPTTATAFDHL

For `CC1CCN(CC[C@H]2CCCN2S(=O)(=O)c2cccc(O)c2)CC1`, the AC50 [1] was 22.4 µM (inconclusive).

With `O=C(Nc1cccc(Br)c1)c1ccc2c(c1)SC1=NS(=O)(=O)CCN12` the IC50 [2] was > 80 µM (inactive) and the AC50 (Paired box protein Pax-8) was 3.32 µM (active).

With `C[C@@H]1CCCCO[C@H](CN(C)C(=O)Nc2ccc(C(F)(F)F)cc2)[C@@H](C)CN([C@H](C)CO)C(=O)c2cc(NC(=O)Nc3ccccc3)ccc2O1` the AC50 [3] was 2.02 µM (active).

For `CCOc1ccc(N2C(=O)c3ccccc3C2=O)cc1`, the IC50 [4] was > 100 µM (active).

For `C[C@H]1CN([C@@H](C)CO)C(=O)Cc2cc(NC(=O)Nc3cccc4ccccc34)ccc2O[C@H]1CN(C)Cc1ccc(C(F)(F)F)cc1`, the AC50 [3] was 5.49 µM (active).

In the case of `Oc1ccc(C=NNC(=S)Nc2ccccc2)nc1`, the AC50 (HEK293) is reported as 14.6 µM (active).

With `COc1cc(/C=C(\C#N)C(=O)NC2CCCCC2C)ccc1OS(=O)(=O)c1ccc(C)cc1` (centres undefined) the EC50 [5] was 2.17 µM (active), the AC50 [6] was 5.32 µM (active) and the EC50 [7] was 10.7 µM (active). For the same compound, the IC50 [4] was > 100 µM (active) and the EC50 [8] was 9.24 µM (active).

For `COc1ccc(NC(=O)Nc2ccc3c(c2)CC(=O)N([C@@H](C)CO)C[C@H](C)[C@@H](CN(C)Cc2ccc(C(=O)Nc4ccccc4N)cc2)O3)cc1`, the AC50 [3] was 3.65 µM (active).

With `COc1ccccc1C(=O)NNC(=O)c1ccc(NC(=O)CC(C)C)cc1` the IC50 (Albumin) was > 94.1 µM (inactive).

For `O=C1CCNc2ccc(-c3ccccc3)cc21`, the IC50 [4] was > 100 µM (active).

With `COc1cc(-c2nc3ccc(N4CCN(C)CC4)cc3[nH]2)cc(OC)c1OC` the IC50 [2] was > 80 µM (inactive) and the IC50 [9] was > 20 µM (inactive).

With `C[C@@H]1CN([C@H](C)CO)C(=O)Cc2cc(NC(=O)C3CCCCC3)ccc2O[C@@H]1CN(C)Cc1ccc(C(=O)Nc2ccccc2N)cc1` the AC50 [3] was 3.51 µM (active).

With `O=C(Oc1ccccc1)c1ccccc1O` [PHENYL SALICYLATE] the AC50 [1] was 50.1 µM (inconclusive).

In the case of `C=CCN1CCc2cccc3c2[C@H]1Cc1ccc(O)c(O)c1-3`, the CC50 [10] is reported as > 40 µM (active), the IC50 [11] is reported as > 80 µM (inactive) and the EC50 [5] is reported as > 260 µM (inactive). For the same compound, the AC50 [1] was 11.2 µM (inconclusive).

For `Cc1cc(NC(=O)CCCN2C(=O)/C(=C/c3ccccc3Cl)SC2=S)no1`, the IC50 [2] was > 80 µM (inactive).
